Source: the supplement of paper PMC13380429

What was measured:
[1] = test system: A549-ACE2 infected with SARS-CoV-2; experiment: cell count relative to DMSO; higher = less toxic; conditions: 24 h
Caco-2 [2] = experiment: cell viability relative to DMSO; higher = less toxic; conditions: 72 h
Calu-3 [3] = experiment: as above; conditions: 72 h
HepG2 [4] = experiment: as above; conditions: 72 h
U2OS [5] = experiment: as above; conditions: 72 h
[6] = test system: A549-ACE2 infected with SARS-CoV-2; experiment: SARS-CoV-2 infection rate relative to DMSO; higher = more infection; conditions: 24 h
A549-ACE2 [7] = experiment: drug-induced phospholipidosis relative to tamoxifen; higher = more phospholipidosis
[8] = test system: A549-ACE2 infected with SARS-CoV-2; experiment: morphology score (similarity to uninfected cells); higher = more like uninfected cells; conditions: 24 h
Caco-2 [9] = experiment: relative viability EC50 (midpoint between 100% and the lowest measured viability); higher = less toxic; conditions: 72 h
Calu-3 [10] = experiment: as above; conditions: 72 h
HepG2 [11] = experiment: as above; conditions: 72 h
U2OS [12] = experiment: as above; conditions: 72 h
Caco-2 [13] = experiment: drug sensitivity score (DSS) for viability; higher = more toxic; extreme values may be limits of the assay; conditions: 72 h
Calu-3 [14] = experiment: as above; conditions: 72 h
HepG2 [15] = experiment: as above; conditions: 72 h
U2OS [16] = experiment: as above; conditions: 72 h
Vero E6 [17] = experiment: cell viability relative to DMSO; higher = less toxic; conditions: 72 h
Vero E6 [18] = experiment: relative viability EC50 (midpoint between 100% and the lowest measured viability); higher = less toxic; conditions: 72 h
Vero E6 [19] = experiment: drug sensitivity score (DSS) for viability; higher = more toxic; extreme values may be limits of the assay; conditions: 72 h
A549-ACE2 [20] = experiment: phospholipidosis EC50; higher = less potent phospholipidosis inducer

Nc1nccc(Oc2ccc(NC(=O)c3c[nH]cc(-c4ccc(F)cc4)c3=O)cc2F)c1Cl [metatinib]
Conditions | SARS-CoV-2 infection rate, [6] [%] | cell count, [1] [%] | cell viability, Caco-2 [2] [%] | cell viability, Calu-3 [3] [%] | cell viability, HepG2 [4] [%] | cell viability, U2OS [5] [%] | morphology score, [8]
1 nM | – | – | 100 | 91.4 | 104 | 96.2 | –
10 nM | – | – | 104 | 96.5 | 106 | 102 | –
100 nM | – | – | 92.6 | 95.5 | 101 | 100 | –
0.3 µM | 101 | 95 | – | – | – | – | -0.24
1000 nM | – | – | 104 | 95.3 | 85.6 | 99.2 | –
3 µM | 91 | 102 | – | – | – | – | -0.08
10 µM | 97 | 106 | – | – | – | – | 0.16
10000 nM | – | – | 80 | 96.3 | 37.7 | 94.9 | –
30 µM | 60 | 60 | – | – | – | – | 0.34

drug-induced phospholipidosis [%], A549-ACE2 [7]
Conditions | 0.3 µM | 0.833333 µM | 3.33333 µM | 6.66667 µM | 10 µM | 30 µM
24 h | 2.65 | 1.25 | 4.8 | 18.8 | 23.4 | 32.3
48 h | 4.96 | -2.22 | -0.29 | 7.93 | 12.6 | 20.2
72 h | 2.59 | -0.924 | 2.59 | 8.07 | 10.8 | 22.5

Conditions | drug sensitivity score | relative viability EC50 [µM]
Caco-2 [9] | – | > 10
Caco-2 [13] | 0.4 | –
Calu-3 [10] | – | > 10
Calu-3 [14] | 0 | –
HepG2 [11] | – | 1.61
HepG2 [15] | 5.7 | –
U2OS [12] | – | > 10
U2OS [16] | 0 | –

COc1c(C)c2c(c(O)c1C/C=C(\C)CCC(=O)OCCN1CCOCC1)C(=O)OC2 [mycophenolate-mofetil]
Conditions | SARS-CoV-2 infection rate, [6] [%] | cell count, [1] [%] | cell viability, Caco-2 [2] [%] | cell viability, Calu-3 [3] [%] | cell viability, HepG2 [4] [%] | cell viability, U2OS [5] [%] | cell viability, Vero E6 [17] [%] | morphology score, [8]
1 nM | – | – | 94.2 | 89.2 | 103 | 96.5 | 99 | –
10 nM | – | – | 101 | 102 | 101 | 97.9 | 98.4 | –
100 nM | – | – | 106 | 94.4 | 112 | 87.8 | 99.1 | –
0.3 µM | 97 | 102 | – | – | – | – | – | 0.22
1000 nM | – | – | 76 | 85.1 | 61.6 | 73.5 | 75.1 | –
3 µM | 78 | 80 | – | – | – | – | – | 0.12
10 µM | 81 | 94 | – | – | – | – | – | 0.22
10000 nM | – | – | 51.3 | 53.1 | 29.2 | 22.8 | 31.3 | –
30 µM | 65 | 92 | – | – | – | – | – | 0.37

drug-induced phospholipidosis [%], A549-ACE2 [7]
Conditions | 0.3 µM | 0.833333 µM | 3.33333 µM | 6.66667 µM | 10 µM | 30 µM
24 h | -1.99 | -10.6 | -14.8 | -15.8 | -12.1 | -11.3
48 h | 0.05 | -8.58 | – | – | – | –
72 h | 1.31 | -1.93 | – | – | – | –

Conditions | drug sensitivity score | relative viability EC50 [µM]
Caco-2 [13] | 5.6 | –
Calu-3 [14] | 4.2 | –
HepG2 [11] | – | 0.938
HepG2 [15] | 8.6 | –
U2OS [12] | – | 1.44
U2OS [16] | 7.2 | –
Vero E6 [18] | – | 1.25
Vero E6 [19] | 7.3 | –

CCCCN1[C@@H]2CC[C@H]1C[C@@H](OC(c1ccc(F)cc1)c1ccc(F)cc1)C2 [JHW-007]
Conditions | SARS-CoV-2 infection rate [%] | cell count [%] | cell viability [%] | morphology score | phospholipidosis EC50 [µM]
A549-ACE2 [20], 24 h | – | – | – | – | 1.59
A549-ACE2 [20], 48 h | – | – | – | – | 3.06
A549-ACE2 [20], 72 h | – | – | – | – | 3.56
Caco-2 [2], 1 nM | – | – | 98.9 | – | –
Caco-2 [2], 10 nM | – | – | 98.3 | – | –
Caco-2 [2], 100 nM | – | – | 102 | – | –
Caco-2 [2], 1000 nM | – | – | 76 | – | –
Caco-2 [2], 10000 nM | – | – | 61.2 | – | –
Calu-3 [3], 1 nM | – | – | 96.8 | – | –
Calu-3 [3], 10 nM | – | – | 96.8 | – | –
Calu-3 [3], 100 nM | – | – | 98.4 | – | –
Calu-3 [3], 1000 nM | – | – | 96.6 | – | –
Calu-3 [3], 10000 nM | – | – | 28 | – | –
HepG2 [4], 1 nM | – | – | 96.6 | – | –
HepG2 [4], 10 nM | – | – | 95.1 | – | –
HepG2 [4], 100 nM | – | – | 96 | – | –
HepG2 [4], 1000 nM | – | – | 103 | – | –
HepG2 [4], 10000 nM | – | – | 36.1 | – | –
U2OS [5], 1 nM | – | – | 102 | – | –
U2OS [5], 10 nM | – | – | 97.9 | – | –
U2OS [5], 100 nM | – | – | 99.9 | – | –
U2OS [5], 1000 nM | – | – | 91.9 | – | –
U2OS [5], 10000 nM | – | – | 70.6 | – | –
Vero E6 [17], 1 nM | – | – | 102 | – | –
Vero E6 [17], 10 nM | – | – | 104 | – | –
Vero E6 [17], 100 nM | – | – | 100 | – | –
Vero E6 [17], 1000 nM | – | – | 99.3 | – | –
Vero E6 [17], 10000 nM | – | – | 61.8 | – | –
[1], 0.1 µM | – | 102 | – | – | –
[1], 0.3 µM | – | 106 | – | – | –
[1], 1 µM | – | 114 | – | – | –
[1], 3 µM | – | 116 | – | – | –
[6], 0.1 µM | 103 | – | – | – | –
[6], 0.3 µM | 85 | – | – | – | –
[6], 1 µM | 58 | – | – | – | –
[6], 3 µM | 20 | – | – | – | –
[8], 0.1 µM | – | – | – | 0.03 | –
[8], 0.3 µM | – | – | – | 0.4 | –
[8], 1 µM | – | – | – | 0.72 | –
[8], 3 µM | – | – | – | 0.93 | –

drug-induced phospholipidosis [%], A549-ACE2 [7]
Conditions | 0.3 µM | 0.833333 µM | 3.33333 µM | 6.66667 µM | 10 µM
24 h | 6 | 18.5 | 80.2 | 92.2 | 90
48 h | 6.06 | 12.4 | 63.9 | 99 | 103
72 h | 9.39 | 14.6 | 61.5 | 99.8 | 110

Conditions | drug sensitivity score | relative viability EC50 [µM]
Caco-2 [13] | 4.8 | –
Calu-3 [10] | – | 2.8
Calu-3 [14] | 4.5 | –
HepG2 [11] | – | 3.44
HepG2 [15] | 3.2 | –
U2OS [16] | 2.4 | –
Vero E6 [19] | 1.9 | –

CN(Cc1ccc(C(C)(C)C)cc1)Cc1cccc2ccccc12 [butenafine]
Conditions | SARS-CoV-2 infection rate, [6] [%] | cell count, [1] [%] | cell viability, Caco-2 [2] [%] | cell viability, Calu-3 [3] [%] | cell viability, HepG2 [4] [%] | cell viability, U2OS [5] [%] | cell viability, Vero E6 [17] [%] | morphology score, [8]
1 nM | – | – | 95.3 | 100 | 106 | 94.6 | 92.8 | –
10 nM | – | – | 101 | 102 | 94.2 | 98 | 102 | –
100 nM | – | – | 92.8 | 98 | 103 | 96.9 | 95.5 | –
0.3 µM | 100 | 101 | – | – | – | – | – | 0.14
1000 nM | – | – | 92.5 | 94.5 | 102 | 96.3 | 102 | –
3 µM | 105 | 83 | – | – | – | – | – | -0.05
10 µM | 77 | 107 | – | – | – | – | – | 0.58
10000 nM | – | – | 93.6 | 98 | 105 | 96.1 | 97.4 | –
30 µM | 39 | 110 | – | – | – | – | – | 0.79

drug-induced phospholipidosis [%], A549-ACE2 [7]
Conditions | 0.3 µM | 0.833333 µM | 3.33333 µM | 6.66667 µM | 10 µM | 30 µM
24 h | 1.71 | -2.5 | 2.21 | -2.25 | 2.84 | 7.06
48 h | 1.14 | -3.77 | -1.99 | -1.09 | 3.04 | 15.1
72 h | 2.18 | -4.26 | -1.97 | -2.04 | 0.626 | 14.1

Conditions | drug sensitivity score | relative viability EC50 [µM]
Caco-2 [9] | – | > 10
Caco-2 [13] | 0 | –
Calu-3 [10] | – | > 10
Calu-3 [14] | 0 | –
HepG2 [11] | – | > 10
HepG2 [15] | 0 | –
U2OS [12] | – | > 10
U2OS [16] | 0 | –
Vero E6 [18] | – | > 10
Vero E6 [19] | 0 | –
